Measurements from patent US8946197B2, “Transglutaminase TG2 inhibitors, pharmaceutical compositions, and methods of use thereof” (CHDI Foundation, Inc., priority 2009, dated 2015).
Values joined by “and” are separate entries in the source; they are usually repeats but may differ in a detail not shown here. Equal values may be shown once.

Target: T1, human TG2 (Homo sapiens, UniProt P21980)
T1 sequence (P21980 1-687): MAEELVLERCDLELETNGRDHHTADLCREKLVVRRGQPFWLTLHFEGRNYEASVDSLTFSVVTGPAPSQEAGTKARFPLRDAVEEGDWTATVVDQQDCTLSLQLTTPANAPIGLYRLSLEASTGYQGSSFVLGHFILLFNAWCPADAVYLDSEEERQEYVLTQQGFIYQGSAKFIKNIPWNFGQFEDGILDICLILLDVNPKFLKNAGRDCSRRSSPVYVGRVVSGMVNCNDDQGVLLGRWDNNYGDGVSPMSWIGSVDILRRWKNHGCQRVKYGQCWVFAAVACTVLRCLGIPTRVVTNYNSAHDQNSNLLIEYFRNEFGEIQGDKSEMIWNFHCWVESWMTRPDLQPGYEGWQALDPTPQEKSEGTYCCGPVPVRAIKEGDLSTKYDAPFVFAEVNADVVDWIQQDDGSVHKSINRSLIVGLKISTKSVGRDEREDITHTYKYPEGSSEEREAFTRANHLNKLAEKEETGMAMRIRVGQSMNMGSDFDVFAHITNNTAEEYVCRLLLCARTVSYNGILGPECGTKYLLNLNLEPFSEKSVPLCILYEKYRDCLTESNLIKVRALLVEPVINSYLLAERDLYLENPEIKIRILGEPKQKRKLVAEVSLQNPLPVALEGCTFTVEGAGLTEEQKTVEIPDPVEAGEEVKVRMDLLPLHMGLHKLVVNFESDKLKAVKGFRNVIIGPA
Assay: fluorescent screening assay for human TG2
Type: biochemical
Conditions: 20 nM TG2, 8 μM N,N-dimethylated Casein, 16 μM KxD, pH 7.4, 37° C
Description: (§1) The fluorescent screening assay for human TG2 was performed as described herein: Assay conditions were 20 nM TG2, 8 μM N,N-dimethylated Casein (NMC) and 16 μM K×D (used for all transglutaminase assays) in 25 mM Hepes, pH 7.4, 250 mM NaCl, 2 mM MgCl2, 0.5 mM CaCl2, 0.2 mM DTT, 0.05% Pluronic F-127 at 37° C. A time point was taken with a microplate reader (Safire or Ultra, Tecan; ex: 350 nm, em: 535 nm) every 3 minutes for up to 2 hours and the initial linear reaction progress was used to determine the reaction velocity as a measure for enzyme activity. Assay conditions were identical for human TG6 and similar for human TG1 and mouse TG2 apart from enzyme concentration (mTG2 at 5 nM; TG1 at 10 nM) and CaCl2 concentration (0.2 mM for mTG2; 0.05 mM for TG1). Factor XIIIa was activated using 0.1 μg/μl thrombin (Sigma) in 35 mM Tris pH 8.0 for 20 min at 30° C. and the transamidation reaction was performed with 20 nM Factor XIIIa in 50 mM Tris pH 8.0, 1.25 mM CaCl2, 0.05% Pluronic, 0.2 mM DTT. TG3 was activated with 0.02 μg/μl thrombin under the same conditions as Factor XIIIa and assay conditions were 10 nM TG3 in 50 mM Hepes, pH 8, 20 mM CaCl2, 0.2 mM DTT, 0.05% Pluronic F-127.
as §1, with “A” for “The”

Row | SMILES | IC50
1 | C=CC(=O)Nc1ccc(S(=O)(=O)N2CCN(C(=O)Oc3ccccc3)CC2)cc1 [4-(4-Acryloylamino-benzenesulfonyl)-piperazine-1-carboxylic acid phenyl ester] | 100 to 1000 nM and < 100 nM
2 | CC#CC(=O)Nc1ccc(S(=O)(=O)N2CCN(C(=O)OC(C)(C)C)CC2)cc1 [4-[4-(1-Oxo-but-2-ynylamino)-benzenesulfonyl]-piperazine-1-carboxylic acid tert-butyl ester] | 1000 to 25000 nM
3 | C=C(F)C(=O)Nc1ccc(S(=O)(=O)N2CCN(C(=O)OC(C)(C)C)CC2)cc1 [4-[4-(2-Fluoro-acryloylamino)-benzenesulfonyl]-piperazine-1-carboxylic acid tert-butyl ester] | 1000 to 25000 nM
4 | C=CC(=O)N(C)c1ccc(S(=O)(=O)N2CCN(C(=O)OC(C)(C)C)CC2)cc1 [4-[4-(Acryloyl-methyl-amino)-benzenesulfonyl]-piperazine-1-carboxylic acid tert-butyl ester] | 1000 to 25000 nM
5 | CC(C)(C)OC(=O)N1CCN(S(=O)(=O)c2ccc(NC(=O)/C=C/Cl)cc2)CC1 [(E)-tert-butyl 4-(4-(3-chloroacrylamido)phenylsulfonyl)piperazine-1-carboxylate] | 1000 to 25000 nM
6 | C/C=C/C(=O)Nc1ccc(S(=O)(=O)N2CCN(C(=O)OC(C)(C)C)CC2)cc1 [(E)-tert-butyl 4-(4-but-2-enamidophenylsulfonyl)piperazine-1-carboxylate] | 1000 to 25000 nM
7 | CC(C)(C)OC(=O)N1CCN(S(=O)(=O)c2ccc(NC(=O)/C=C\Cl)cc2)CC1 [(Z)-tert-butyl 4-(4-(3-chloroacrylamido)phenylsulfonyl)piperazine-1-carboxylate] | 100 to 1000 nM
8 | C/C=C\C(=O)Nc1ccc(S(=O)(=O)N2CCN(C(=O)OC(C)(C)C)CC2)cc1 [(Z)-tert-butyl 4-(4-but-2-enamidophenylsulfonyl)piperazine-1-carboxylate] | 1000 to 25000 nM
9 | C=CC(=O)Nc1ccc(S(=O)(=O)N2CCC(N(C)C(=O)C34CC5CC(CC(C5)C3)C4)CC2)cc1 [Adamantane-1-carboxylic acid [1-(4-acryloylamino-benzenesulfonyl)-piperidin-4-yl]-methyl-amide] | 100 to 1000 nM and < 100 nM
10 | C=CC(=O)Nc1ccc(S(=O)(=O)N2CCN(C(=O)Cc3cccc(Oc4ccccc4)c3)CC2)cc1 [N-(4-{4-[2-(3-Phenoxy-phenyl)-acetyl]-piperazine-1-sulfonyl}-phenyl)-acrylamide] | 100 to 1000 nM and < 100 nM
11 | C=CC(=O)Nc1ccc(S(=O)(=O)N2CCN(C(=O)Cc3ccc(Oc4ccccc4)cc3)CC2)cc1 [N-(4-{4-[2-(4-Phenoxy-phenyl)-acetyl]-piperazine-1-sulfonyl}-phenyl)-acrylamide] | 100 to 1000 nM and < 100 nM
12 | C=CC(=O)Nc1ccc(S(=O)(=O)N(C)Cc2ccc(CN3CCN(C)CC3)cc2)cc1 [N-(4-{Methyl-[4-(4-methyl-piperazin-1-ylmethyl)-benzyl]-sulfamoyl}-phenyl)-acrylamide] | 1000 to 25000 nM
13 | C=CC(=O)Nc1cccc(S(=O)(=O)N2CCN(Cc3ccccc3)CC2)c1 [N-[3-(4-Benzyl-piperazine-1-sulfonyl)-phenyl]-acrylamide] | 1000 to 25000 nM
14 | C=CC(=O)Nc1cccc(S(=O)(=O)N2CCN(CCc3ccccc3)CC2)c1 [N-[3-(4-Phenethyl-piperazine-1-sulfonyl)-phenyl]-acrylamide] | 1000 to 25000 nM
15 | C=CC(=O)Nc1cccc(S(=O)(=O)N2CCN(c3ccccc3)CC2)c1 [N-[3-(4-Phenyl-piperazine-1-sulfonyl)-phenyl]-acrylamide] | 1000 to 25000 nM
16 | C=CC(=O)Nc1cccc(S(=O)(=O)N2CCNCC2)c1 [N-[3-(piperazine-1-sulfonyl)-phenyl]-acrylamide] | 1000 to 25000 nM
17 | C=CC(=O)Nc1ccc(S(=O)(=O)N2CCNCC2)c(OC)c1 [N-[3-Methoxy-4-(piperazine-1-sulfonyl)-phenyl]-acrylamide] | 1000 to 25000 nM

Row | SMILES | IC50
18 | C=CC(=O)Nc1ccc(S(=O)(=O)N2CCNCC2)c(C)c1 [N-[3-Methyl-4-(piperazine-1-sulfonyl)-phenyl]-acrylamide] | 1000 to 25000 nM
19 | C=CC(=O)Nc1ccc(S(=O)(=O)NC2CCCN(CC)C2)cc1 (stereo not shown) [N-[4-(1-Ethyl-piperidin-3-ylsulfamoyl)-phenyl]-acrylamide] | 1000 to 25000 nM
20 | C=CC(=O)Nc1ccc(S(=O)(=O)NC(C)C(=O)N2CCCCC2)cc1 (stereo not shown) [N-[4-(1-Methyl-2-oxo-2-piperidin-1-yl-ethylsulfamoyl)-phenyl]-acrylamide] | 1000 to 25000 nM
21 | C=CC(=O)Nc1ccc(S(=O)(=O)N2CCN(c3cnccn3)CC2)cc1 [N-[4-(2,3,5,6-Tetrahydro-[1,2′]bipyrazinyl-4-sulfonyl)-phenyl]-acrylamide] | < 100 nM and 100 to 1000 nM
22 | C=CC(=O)Nc1ccc(S(=O)(=O)N2CCN(C34CC5CC(CC(C5)C3)C4)CC2)cc1 [N-[4-(4-Adamantan-1-yl-piperazine-1-sulfonyl)-phenyl]-acrylamide] | 1000 to 25000 nM
23 | C=CC(=O)Nc1ccc(S(=O)(=O)N2CCC(N)CC2)cc1 [N-[4-(4-Amino-piperidine-1-sulfonyl)-phenyl]-acrylamide] | 1000 to 25000 nM
24 | C=CC(=O)Nc1ccc(S(=O)(=O)N2CCN(c3nc4ccccc4o3)CC2)cc1 [N-[4-(4-Benzooxazol-2-yl-piperazine-1-sulfonyl)-phenyl]-acrylamide] | < 100 nM and 100 to 1000 nM
25 | C=CC(=O)Nc1ccc(S(=O)(=O)N2CCN(c3nc4ccccc4s3)CC2)cc1 [N-[4-(4-Benzothiazol-2-yl-piperazine-1-sulfonyl)-phenyl]-acrylamide] | < 100 nM and 100 to 1000 nM
26 | C=CC(=O)Nc1ccc(S(=O)(=O)N2CCN(c3cccc(-c4ccccc4)c3)CC2)cc1 [N-[4-(4-Biphenyl-3-yl-piperazine-1-sulfonyl)-phenyl]-acrylamide] | 1000 to 25000 nM
27 | C=CC(=O)Nc1ccc(S(=O)(=O)N2CCN(Cc3ccc(-c4ccccc4)cc3)CC2)cc1 [N-[4-(4-Biphenyl-4-ylmethyl-piperazine-1-sulfonyl)-phenyl]-acrylamide] | 1000 to 25000 nM
28 | C=CC(=O)Nc1ccc(S(=O)(=O)N2CCN(C(=O)C3CCCC3)CC2)cc1 [N-[4-(4-Cyclopentanecarbonyl-piperazine-1-sulfonyl)-phenyl]-acrylamide] | 100 to 1000 nM and < 100 nM
29 | C=CC(=O)Nc1ccc(S(=O)(=O)N2CCN(C(=O)C3CC3)CC2)cc1 [N-[4-(4-Cyclopropanecarbonyl-piperazine-1-sulfonyl)-phenyl]-acrylamide] | 100 to 1000 nM and < 100 nM
30 | C=CC(=O)Nc1ccc(S(=O)(=O)N2CCC(c3ccco3)=Nc3ccccc32)cc1 [N-[4-(4-Furan-2-yl-2,3-dihydro-benzo[β][1,4]diazepine-1-sulfonyl)-phenyl]-acrylamide] | 1000 to 25000 nM
31 | C=CC(=O)Nc1ccc(S(=O)(=O)N2CCN(c3nccc4occc34)CC2)cc1 [N-[4-(4-Furo[3,2-c]pyridin-4-yl-piperazine-1-sulfonyl)-phenyl]-acrylamide] | < 100 nM and 100 to 1000 nM
32 | C=CC(=O)Nc1ccc(S(=O)(=O)N2CCN(c3nccc4ccccc34)CC2)cc1 [N-[4-(4-Isoquinolin-1-yl-piperazine-1-sulfonyl)-phenyl]-acrylamide] | < 100 nM and 100 to 1000 nM
33 | C=CC(=O)Nc1ccc(S(=O)(=O)N2CCN(c3ccc4ccccc4c3)CC2)cc1 [N-[4-(4-Naphthalen-2-yl-piperazine-1-sulfonyl)-phenyl]-acrylamide] | 1000 to 25000 nM
34 | C=CC(=O)Nc1ccc(S(=O)(=O)N2CCN(c3ccccn3)CC2)cc1 [N-[4-(4-Pyridin-2-yl-piperazine-1-sulfonyl)-phenyl]-acrylamide] | 100 to 1000 nM and < 100 nM
